Series [1] deals with diazepam-induced sedative-hypnotic effects. Description: Main phase: locomotor activity in activity cage after diazepam induction. Format: in vivo, rat. As to the method:
(§1) The main phase consisted of 4 groups of n=8 male and female SD rats/group. Induction of sedative-hypnotic effects, as measured by Sleeping Time and locomotor activity, was carried out by two intravenous injections of diazepam at an interval of approximately 2 minutes. The Test, Reference and Control Items were administered twice at interval of 2 minutes as well, about 5 minutes after the second dose of diazepam. Both Test Items FLUMUP-F22 (F22, Table 26 below) and FLUMUP-F26 (F26, Table 26 below) were administered by the sublingual route at a constant dose volume of 0.1 ml/animal per administration. An additional group was administered with FLUMUP Placebo under identical experimental conditions and served as a Control group. A fourth group was subjected to IV injection of the Reference Item under identical experimental conditions. Animals were placed in the activity cage immediately following arousal from ‘Sleep’ or 10 minutes post the second dose of the respective treatment if arousal was not evident.
Males were injected with an initial dose level of 15 mg/kg and approximately 2 minutes later an addition of 5 mg/kg was administered. Females were injected with an initial dose level of 20 mg/kg and approximately 2 minutes later an addition of 5 mg/kg.
(i) The Test and Control Items were administered by the sublingual route twice at an interval of approximately 2 minutes about 5 minutes post the second injection of diazepam. (ii) The Reference Item flumazenil USP was injected twice intravenously at an interval of approximately 2 minutes about 5 minutes post the second injection of diazepam. The Test, Reference and Control Items were administered at a constant dose volume of 0.1 ml/animal per administration over approximately 15 seconds.
Each rat was placed in the center of a special designed commercial activity cage, measuring 40×40×46 cm (TruScan Photo Beam Activity System-Coulbourn Instruments, Allentown, Pa., USA) for a duration of 15 minutes.
Evaluation was based on the relative recorded changes in the measured Sleeping Time and locomotor activity, obtained from the Test & Reference Items-treated animals vs. those of the Control Item group. Data analysis of all measurable parameters was performed by the use of the following methods in order to determine significance of treatment effects: Software: GraphPad Instat®—Version 3.02 (Statistical Method: 1-Way ANOVA; Dunnett Multiple Comparisons Test for locomotor activity parameters; Kruskal-Wallis Test for Sleeping Time data) Microsoft” Excel 2000.

The test system is the same in series [2]. Description: Main phase: Sleeping Time (regaining of Righting Reflex) after diazepam induction. As to conditions: IV, two administrations at 2 min interval after diazepam. Format: in vivo, rat. As to the method:
as §1
Males were injected with an initial dose level of 15 mg/kg and approximately 2 minutes later an addition of 5 mg/kg was administered. […]
Sleeping time was determined for all animals.
Evaluation was based on the relative recorded changes in the measured Sleeping Time and locomotor activity, obtained from the Test & Reference Items-treated animals vs. those of the Control Item group. […]

Series [3] deals with Sprague-Dawley™ (SD) rats. Description: Preliminary phase: induction of 'Sleep' by IV diazepam (dose finding). Conditions: for mortality after diazepam injection: FDC = Found Dead in the Cage.
The subject of series [4] is sleep/hypnotic effect of zolpidem or brotizolam. Description: Clinical study: Visual Analogue Scale (sleepiness/vigilance, ability to focus, effectiveness). Conditions: Baseline sleep (after hypnotic, before oral spray).
Series [5] shares this test system. Description: Clinical study: digit symbol substitution test (DSST). Conditions: Baseline sleep (after hypnotic, before oral spray).
Series [6] is described as follows: Clinical study: vital signs and safety assessments. Conditions: Baseline sleep (after hypnotic, before oral spray); for Pulse rate: 10 subjects per hypnotic.
The subject of series [7] is sleep/hypnotic effect of zolpidem or brotizolam. Description: Clinical study: Profile Of Mood States (POMS) Brief form. As to conditions: Baseline sleep (after hypnotic, before oral spray).
Series [8] has the same test system. In words: Clinical study: immediate Word Recall Test (iWRT). As to conditions: Baseline sleep (after hypnotic, before oral spray).
For series [9] the following is noted: in vivo, po; cited from earlier work.

“And” between values parts separate entries of the source, which are not always exact repeats. Equal values may be shown once.

For the compound `CCOC(=O)c1ncn2c1CN(C)C(=O)c1cc(F)ccc1-2` [Reference Item], the “area of the cage where rats moved or stayed” value in series [1] (Area 1 peripheries (normal behavior), Area 2 central, FIG. 11) is given as “stayed in the central area of the cage”. Further, in series [1] (after regaining righting reflex, males and females), the locomotor activity result is “very low and similar to that of the control animals”. Further, in series [1] (female rats, 15 min session, diazepam 20+5 mg/kg IV), the “total distance versus Control group” value is given as “No statistical significant difference”. Also, the “mean group time spent in the extent of the activity cage versus controls” value in [1] (male rats) is on record as “relatively higher”. In series [1] (male rats, 15 min session, diazepam 15+5 mg/kg IV), the “total distance, mean group values versus Control group” value is reported as “only one out of the four males exhibited higher values”. Moreover, the “regaining of Righting Reflex (Sleeping Time)” value in series [2] is recorded as “regained their righting reflex very shortly following injection”.
On to `CN1C(=O)CN=C(c2ccccc2)c2cc(Cl)ccc21` [Diazepam], for which the “additional duration of 'Sleep' after supplement dose” value in [3] (female rat, 20 mg/kg then supplement 5 mg/kg IV) came to 1180 s; in series [3] (male rat, 15 mg/kg then supplement 5 mg/kg IV) it was 850 s. The “mortality after diazepam injection” value in [3] (female rat, single dose 25 mg/kg IV, 25 mg/kg) is “died immediately following injection and FDC”; in series [3] (female rat, single dose 25 mg/kg IV, listed as diazepam, 25 mg/kg) it was “death”; in series [3] (male rat, single dose 20 mg/kg IV, 20 mg/kg) it was “died immediately following injection and FDC”; in series [3] (male rat, single dose 20 mg/kg IV, listed as diazepam, 20 mg/kg) it was “death”. In addition, the “duration of induced 'Sleep'” value in series [3] (female rats, diazepam 20 mg/kg IV, individual animals) is 240 s and 180 s; in [3] (male rat, diazepam 10 mg/kg IV, single animal), 46 s; in [3] (male rat, diazepam 15 mg/kg IV, single animal), 130 s; in series [3] (male rat, diazepam 20 mg/kg IV, single animal) it was 1700 s.
In [4], `Cc1nnc2n1-c1sc(Br)cc1C(c1ccccc1Cl)=NC2` [Brotizolam] returned an Effectiveness of 2.3 ± 0.3, a Focus ability of 2.4 ± 0.4 and a Vigilance of 2.3 ± 0.4. In series [5], this compound yielded a DSST of 76.3 ± 7.7. In series [6], the “Diastolic BP” value is on record as 69.0 ± 2.8, the “Systolic BP” value is reported as 116.9 ± 4.8 and the Pulse rate is on record as 69.8 ± 1.8. For the same compound, in [7], the POMS- fatigue is listed as 7.2 ± 1.2 and the POMS-Alertness came to 4.3 ± 1.0. Besides, the iWRT in series [8] was determined as 7.6 ± 1.3.
Turning to `Cc1ccc(-c2nc3ccc(C)cn3c2CC(=O)N(C)C)cc1` [Zolpidem], in series [4], the Effectiveness turned out to be 1.5 ± 0.4, the Focus ability was determined as 1.5 ± 0.4 and the Vigilance was 1.4 ± 0.3. The DSST in series [5] stood at 62.5 ± 3.6. In series [6], the “Diastolic BP” value worked out at 71.4 ± 1.9, the “Systolic BP” value amounted to 119.5 ± 4.0 and the Pulse rate is 77.5 ± 3.5. In [7], the POMS- fatigue is 9.3 ± 1.4 and the POMS-Alertness came out at 1.9 ± 1.0. For the same compound, in series [8], the iWRT is on record as 4.1 ± 0.3. Moreover, in [9], the oral bioavailability is 70%.

The values are drawn from patent publication US20120295893A1, “COMPOSITIONS AND METHODS OF COUNTERACTING RESIDUAL SEDATIVE EFFECTS OF SLEEP/ HYPNOTIC DRUGS” (COERULEUS LTD., priority 2009, published 2012).
